Common to all, as to assay: ≥ marks a high value that may be exact or a test limit, other limits are often not marked, values filed in µg/mL are converted to µM
The subject of assay [1] is Batrachochytrium dendrobatidis JEL-197.
Assay [2] relates to Escherichia coli ATCC 25726.
Assay [3] deals with Staphylococcus aureus ATCC 25923.
In assay [4] the test system is Acinetobacter baumannii ATCC 19606.
Assay [5] deals with Bordetella bronchiseptica CUN 11844-99.
Assay [6] concerns Escherichia coli ATCC 25922.
Assay [7] concerns Pseudomonas aeruginosa ATCC 27853.
The subject of assay [8] is Pseudomonas aeruginosa CUN 4158-02.
Assay [9] concerns Staphylococcus aureus ATCC 43300.
The subject of assay [10] is Staphylococcus aureus CUN 3792-99.
The test system of assay [11] is Stenotrophomonas maltophilia CUN 3998-00.
Assay [12] has as its system Candida albicans ATCC 90028.
In assay [13] the test system is Enterobacter cloacae NHTCC 53001.
The test system of assay [14] is Klebsiella pneumoniae KK3 9904.
For assay [15], the system named is Staphylococcus aureus NCTC 8325.

Molecules are shown by their SMILES. In brackets after ≈: the same amount, converted by molar mass.

Usually MIC stands for the lowest concentration that inhibits growth of the organism. Lower therefore signals inhibition by little substance.

Regarding `CC[C@H](C)[C@H](NC(=O)CN)C(=O)N[C@@H](CC(C)C)C(=O)N[C@@H](CC(=O)O)C(=O)N[C@H](C(=O)N[C@@H](Cc1ccccc1)C(=O)N[C@@H](CCCCN)C(=O)NCC(=O)N[C@H](C(=O)N[C@@H](C)C(=O)N[C@@H](CCCCN)C(=O)NCC(=O)N[C@H](C(=O)N[C@@H](C)C(=O)N[C@@H](CCCCN)C(=O)N[C@@H](CC(=O)O)C(=O)N[C@@H](CC(C)C)C(=O)N[C@@H](C)C(=O)N[C@H](C(=O)N[C@@H](Cc1cnc[nH]1)C(=O)N[C@@H](CCSC)C(=O)N[C@@H](CC(C)C)C(=O)N[C@@H](CCC(=O)O)C(=O)N[C@@H](CC(N)=O)C(=O)N[C@@H](CC(C)C)C(=O)N[C@@H](CCCCN)C(=O)N[C@H]1CSSC[C@@H](C(=O)O)NC(=O)CNC(=O)[C@H]([C@@H](C)O)NC(=O)[C@H](CCSC)NC(=O)[C@H](CCCCN)NC1=O)C(C)C)C(C)C)C(C)C)[C@@H](C)O` [GILDTFKGVAKGVAKDLAVHMLENLKCKMTGC], the MIC in [1] is no less than 50 µM; in assay [2], no less than 50 µM; in assay [3] it was 100 µM (≈ 339 µg/mL).

As for `NCCCC[C@H](NC(=O)CNC(=O)[C@H](CCCCN)NC(=O)[C@H](Cc1ccccc1)NC(=O)[C@H](CCCCN)NC(=O)[C@H](Cc1c[nH]c2ccccc12)NC(=O)[C@H](Cc1ccccc1)NC(=O)[C@H](CCCN=C(N)N)NC(=O)[C@H](CCCN=C(N)N)NC(=O)[C@H](Cc1ccc(O)cc1)NC(=O)[C@H](CCCCN)NC(=O)[C@H](CCCCN)NC(=O)CN)C(=O)N[C@@H](Cc1c[nH]c2ccccc12)C(=O)N[C@@H](Cc1ccccc1)C(=O)N[C@@H](Cc1c[nH]c2ccccc12)C(=O)N[C@@H](Cc1ccccc1)C(=O)N[C@@H](Cc1c[nH]c2ccccc12)C(=O)NCC(N)=O` [GKKYRRFWKFKGKWFWFWG], the minimal inhibitory concentration (MIC) came to 6.06 µM (≈ 16 µg/mL) in assay [4]; 3.03 µM (≈ 8 µg/mL) in [5]; 388 µM (≈ 1020 µg/mL) in [6]; 3.03 µM (≈ 8 µg/mL) in assay [7]; 12.1 µM (≈ 32 µg/mL) in assay [8]; 388 µM (≈ 1020 µg/mL) in assay [3]. The MIC in [9] turned out to be 6.06 µM (≈ 16 µg/mL); in assay [10] it was 6.06 µM (≈ 16 µg/mL); in assay [11], 24.3 µM (≈ 64 µg/mL).

For `CC[C@H](C)[C@@H]1NC(=O)[C@H](CCCCN)NC(=O)[C@@H](NC(=O)[C@H](CCCCN)NC(=O)[C@H](C)NC(=O)[C@H](CCC(N)=O)NC(=O)[C@H](CC(=O)O)NC(=O)[C@H](CC(C)C)NC(=O)[C@H](CC(C)C)NC(=O)[C@H](CO)NC(=O)CNC(=O)CNC(=O)[C@@H](NC(=O)[C@H](CC(N)=O)NC(=O)[C@H](CCCCN)NC(=O)[C@H](Cc2ccccc2)NC(=O)[C@@H](NC(=O)[C@H](Cc2cnc[nH]2)NC(=O)[C@H](CCCCN)NC(=O)CNC(=O)[C@H](C)NC(=O)[C@@H](NC(=O)[C@H](CCCCN)NC(=O)[C@H](CC(C)C)NC(=O)[C@@H](NC(=O)CNC(=O)[C@H](CCCCN)NC(=O)[C@@H](NC(=O)[C@@H](NC(=O)[C@H](CO)NC(=O)[C@H](CCSC)NC(=O)[C@H](CC(C)C)NC(=O)CN)C(C)C)[C@@H](C)O)C(C)C)[C@@H](C)O)[C@@H](C)CC)C(C)C)CSSC[C@@H](C(=O)O)NC(=O)[C@H](CCC(N)=O)NC(=O)CNC(=O)[C@H](CO)NC1=O` [GLMSVTKGVLKTAGKHIFKNVGGSLLDQAKCKISGQC], the MIC in assay [12] is no less than 100 µM; in assay [13], 6 µM (≈ 22.9 µg/mL); in assay [6], 3 µM (≈ 11.4 µg/mL); in assay [14] it was 12 µM (≈ 45.8 µg/mL); in [7] it was 6 µM (≈ 22.9 µg/mL); in assay [15] it was 25 µM (≈ 95.4 µg/mL).

(Values after DBAASP.)
